The values below are quoted from earlier work in paper PMC6844301, “Antibacterial activity of a Tribolium castaneum defensin in an in vitro infection model of Streptococcus pneumoniae” (Virulence, 2019).

The data set has as its system multi-resistant clinical isolate serotype 19A (AMR). The conditions noted are these: strain description of the AMR isolate in methods; method or ref not given. The protocol:
They were grown on sheep blood agar plates for 10 h and then transferred to Todd Hewitt Yeast (THY) medium (Carl Roth GmbH, Karlsruhe) at a density of 4 × 10^7 bacteria/ml (Ultraspec 10 Cell Densitometer, Amersham Biosciences). Upon reaching a density of 2 × 10^8 bacteria/ml, the bacterial suspension was diluted to 5 × 10^6 bacteria/ml. To esta ...
Turning to `CN(C)[C@@H]1C(O)=C(C(N)=O)C(=O)[C@@]2(O)C(O)=C3C(=O)c4c(O)cccc4[C@@](C)(O)[C@H]3C[C@@H]12` [Tetracycline], the “resistant against (antibiotic concentration)” value (shortened to “resistant against”) is 32 µg/mL.

Turning to `CO/N=C(\C(=O)N[C@@H]1C(=O)N2C(C(=O)O)=C(COC(C)=O)CS[C@H]12)c1csc(N)n1` [Cefotaxim], the “resistant against” value was 4 µg/mL.

Consider Penicillin, for which the “resistant against” value was 8 µg/mL.

On to `CCC[C@@H]1C[C@@H](C(=O)N[C@@H]([C@H]2O[C@H](SC)[C@H](O)[C@@H](O)[C@H]2O)[C@H](C)Cl)N(C)C1` [Clindamycin], for which the “resistant against” value is 256 µg/mL.
